How the values were obtained:
Vasopressin V2 receptor = Vasopressin V2 receptor (Rattus norvegicus, UniProt Q00788); experiment: Vasopressin V2 receptor antagonistic activity in vivo in anesthetized rats; assay type: functional, organism-based; details: read-out: pA2 (converted)
[1] = biological target: Vasopressin V2 receptor (Rattus norvegicus) (UniProt Q00788); experiment: Selectivity ratio of antidiuretic Vasopressin V2 receptor ED /[…] receptor ED; details: Urine
[2] = biological target: Vasopressin V1 receptor (Rattus norvegicus) (UniProt P48974+P30560); experiment: Effective dose was determined for Vasopressin V1 receptor antagonistic activity in vivo in anesthetized rats; assay type: functional, organism-based
Sequence of Vasopressin V1 receptor (Rattus norvegicus) (P30560 whole entry, looked up): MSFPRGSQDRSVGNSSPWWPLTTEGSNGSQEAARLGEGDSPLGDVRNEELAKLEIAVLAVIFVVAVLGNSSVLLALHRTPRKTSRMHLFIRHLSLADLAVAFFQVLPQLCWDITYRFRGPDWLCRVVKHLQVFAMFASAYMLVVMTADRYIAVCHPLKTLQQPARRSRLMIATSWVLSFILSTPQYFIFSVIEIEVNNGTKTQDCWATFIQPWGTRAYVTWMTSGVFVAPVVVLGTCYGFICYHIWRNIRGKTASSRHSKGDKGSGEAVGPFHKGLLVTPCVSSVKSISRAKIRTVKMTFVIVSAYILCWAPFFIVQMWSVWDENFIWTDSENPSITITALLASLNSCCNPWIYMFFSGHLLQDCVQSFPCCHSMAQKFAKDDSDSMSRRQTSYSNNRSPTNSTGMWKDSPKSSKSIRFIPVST
Sequence of Vasopressin V1 receptor (Rattus norvegicus) (P48974 whole entry, looked up): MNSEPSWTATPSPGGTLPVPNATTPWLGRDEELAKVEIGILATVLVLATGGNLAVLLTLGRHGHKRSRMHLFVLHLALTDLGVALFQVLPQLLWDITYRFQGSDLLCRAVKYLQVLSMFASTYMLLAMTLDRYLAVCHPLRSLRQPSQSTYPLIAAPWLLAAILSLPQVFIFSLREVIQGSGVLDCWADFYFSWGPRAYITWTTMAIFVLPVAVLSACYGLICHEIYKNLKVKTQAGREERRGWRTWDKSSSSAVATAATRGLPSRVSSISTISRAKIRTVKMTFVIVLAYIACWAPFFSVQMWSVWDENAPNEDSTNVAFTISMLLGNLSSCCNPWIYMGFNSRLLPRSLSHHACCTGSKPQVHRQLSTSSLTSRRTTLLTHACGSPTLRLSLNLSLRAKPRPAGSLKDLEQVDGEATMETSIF

[3] = biological target: Vasopressin V2 receptor (Rattus norvegicus) (UniProt Q00788); experiment: Effective dose was determined for Vasopressin V2 receptor antagonistic activity in vivo in anesthetized rats; assay type: functional, organism-based
Vasopressin V1 receptor = Vasopressin V1 receptor (Rattus norvegicus, UniProt P48974+P30560); experiment: pA2 value was determined for Vasopressin V1 receptor antagonistic activity in vivo in anesthetized rats; assay type: functional, organism-based
Rattus norvegicus = experiment: pA2 value was determined for antidiuretic V2 antagonistic activity in vivo in anesthetized rats pA2 value was determined for antidiuretic V2 antagonistic activity in vivo in anesthetized rats; assay type: functional, organism-based; details: Urine, read-out: pA2 (converted)

Sequence of Vasopressin V2 receptor (Q00788 whole entry): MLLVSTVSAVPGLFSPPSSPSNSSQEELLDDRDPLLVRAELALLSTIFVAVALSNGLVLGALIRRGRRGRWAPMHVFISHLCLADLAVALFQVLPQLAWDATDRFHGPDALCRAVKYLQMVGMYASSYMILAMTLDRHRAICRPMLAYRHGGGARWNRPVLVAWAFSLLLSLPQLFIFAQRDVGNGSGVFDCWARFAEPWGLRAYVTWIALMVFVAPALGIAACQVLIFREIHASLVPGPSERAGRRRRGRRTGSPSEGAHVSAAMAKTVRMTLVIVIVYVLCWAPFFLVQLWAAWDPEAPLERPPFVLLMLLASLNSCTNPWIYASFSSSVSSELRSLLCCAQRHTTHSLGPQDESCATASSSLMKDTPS
Sequence of Vasopressin V2 receptor (Rattus norvegicus) (Q00788 whole entry): as above

Structure (SMILES) | Kb (Vasopressin V2 receptor) [nM] | Ratio [1] | Effective dose [2] [nM/kg] | Effective dose [3] [nM/kg] | pA2 (Vasopressin V1 receptor) | Kb (Rattus norvegicus) [nM]
CCOc1ccc(C[C@@H](NC(=O)CC(C)(C)C)C(=O)N[C@@H](Cc2ccccc2)C(=O)N[C@H](C(=O)N[C@@H](CC(N)=O)C(=O)N[C@@H](CCCN=C(N)N)C(=O)N(C)[C@@H](C)C(=O)N[C@@H](CCCN=C(N)N)C(N)=O)C(C)C)cc1 | 251 | 53 | 0.3 | 16 | 8.34 | 
CCOc1ccc(C[C@@H](NC(=O)CC23CC4CC(CC(C4)C2)C3)C(=O)N[C@@H](Cc2ccccc2)C(=O)N[C@H](C(=O)N[C@@H](CC(N)=O)C(=O)N[C@@H](CCCN=C(N)N)C(=O)N2CCC[C@H]2C(=O)N[C@@H](CCCN=C(N)N)C(=O)N[C@@H](CCCN=C(N)N)C(N)=O)C(C)C)cc1 |  |  |  |  | 8.13 | 10.5
CCOc1ccc(C[C@@H](NC(=O)Cc2ccccc2)C(=O)N[C@@H](Cc2ccccc2)C(=O)N[C@H](C(=O)N[C@@H](CC(N)=O)C(=O)N[C@@H](CCCCN)C(=O)N2CCC[C@H]2C(=O)N[C@@H](CCCN=C(N)N)C(=O)N[C@@H](CCCN=C(N)N)C(N)=O)C(C)C)cc1 |  |  |  |  | 8.47 | ~141
CCOc1ccc(C[C@@H](NC(=O)CC23CC4CC(CC(C4)C2)C3)C(=O)N[C@@H](Cc2ccccc2)C(=O)N[C@H](C(=O)N[C@@H](CC(N)=O)C(=O)N[C@@H](CCCN)C(=O)N2CCC[C@H]2C(=O)N[C@@H](CCCN=C(N)N)C(N)=O)C(C)C)cc1 |  |  |  |  | 7.33 | 15.5
COc1ccc(C[C@@H](NC(=O)Cc2ccccc2)C(=O)N[C@@H](Cc2ccccc2)C(=O)N[C@@H](CCC(N)=O)C(=O)N[C@@H](CC(N)=O)C(=O)N[C@@H](CCCCN)C(=O)N2CCC[C@H]2C(=O)N[C@@H](CCCN=C(N)N)C(N)=O)cc1 |  |  |  |  | 8.93 | > 316
CC(C)[C@H](NC(=O)[C@H](Cc1ccccc1)NC(=O)[C@@H](Cc1ccc(O)cc1)NC(=O)CC12CC3CC(CC(C3)C1)C2)C(=O)N[C@@H](CC(N)=O)C(=O)N[C@@H](CCCN=C(N)N)C(=O)N1CCC[C@H]1C(=O)N[C@@H](CCCN=C(N)N)C(=O)N[C@@H](CCCN=C(N)N)C(N)=O | 21.9 |  |  |  | 8.22 | 
COc1ccc(C[C@@H](NC(=O)Cc2ccccc2)C(=O)N[C@@H](Cc2ccccc2)C(=O)N[C@H](C(=O)N[C@@H](CC(N)=O)C(=O)N[C@@H](CCCCN)C(=O)N2CCC[C@H]2C(=O)N[C@@H](CCCN=C(N)N)C(N)=O)C(C)C)cc1 | 100 |  |  |  | 8.61 | 
CCOc1ccc(C[C@@H](NC(=O)Cc2ccccc2)C(=O)N[C@@H](Cc2ccccc2)C(=O)N[C@H](C(=O)N[C@@H](CC(N)=O)C(=O)NCCCC(=O)N2CCC[C@H]2C(=O)N[C@@H](CCCN=C(N)N)C(=O)N[C@@H](CCCN=C(N)N)C(N)=O)C(C)C)cc1 | 10.2 |  |  |  | 8.42 | 
CCOc1ccc(C[C@@H](NC(=O)CC(C)(C)C)C(=O)N[C@@H](Cc2ccccc2)C(=O)N[C@@H](CCC(N)=O)C(=O)N[C@@H](CC(N)=O)C(=O)N[C@@H](CCCCN)C(=O)N2CCC[C@H]2C(=O)N[C@@H](CCCN=C(N)N)C(N)=O)cc1 | 6310 |  |  |  | 8.4 | 
CCOc1ccc(C[C@@H](NC(=O)CC23CC4CC(CC(C4)C2)C3)C(=O)N[C@@H](Cc2ccccc2)C(=O)N[C@H](C(=O)N[C@@H](CC(N)=O)C(=O)N[C@@H](CCCCN)C(=O)N2CCC[C@H]2C(=O)N[C@@H](CCCN=C(N)N)C(=O)N[C@@H](CCCN=C(N)N)C(N)=O)C(C)C)cc1 | 20 |  |  |  | 8.14 | 
CCOc1ccc(C[C@@H](NC(=O)CC23CC4CC(CC(C4)C2)C3)C(=O)N[C@@H](Cc2ccccc2)C(=O)N[C@H](C(=O)N[C@@H](CC(N)=O)C(=O)N[C@@H](CCCCN)C(=O)N2CCC[C@H]2C(=O)N[C@@H](CCCN=C(N)N)C(N)=O)C(C)C)cc1 | 15.5 |  |  |  | 8.02 | 
CCOc1ccc(C[C@@H](NC(=O)Cc2ccccc2)C(=O)N[C@@H](Cc2ccccc2)C(=O)N[C@H](C(=O)N[C@@H](CC(N)=O)C(=O)N[C@@H](CCCCN)C(=O)N2CCC[C@H]2C(=O)N[C@@H](CCCN=C(N)N)C(N)=O)C(C)C)cc1 | 43.7 |  |  |  | 8.81 | 

— ChEMBL document CHEMBL1125129, “Design of potent and selective linear antagonists of vasopressor (V1-receptor) responses to vasopressin” (J Med Chem, 1990)
